According to article PMC6766655, “AhR–ROR-γt complex is a therapeutic target for MAP4K3/GLK^highIL-17A^high subpopulation of systemic lupus erythematosus” (The FASEB Journal, 2019):

How the values were obtained:
[1] = tested on: in vitro differentiated Th17 cells; experiment: IL-17A production of in vitro differentiated Th17 cells stimulated with PMA plus ionomycin (flow cytometry); assay type: cell-based, murine; details: 1 or 5 μM for 30 min
Description: (§1) Supplementary Figure 5. Verteporfin inhibits both Th17 differentiation and IL-17A production from in vitro differentiated Th17 cells. (A) Flow cytometry of IL-17A-producing CD4^+ T cells. Splenic T cells were co-treated with verteporfin (C1) (1 or 5 μM) during Th17 differentiation in vitro (for 3 days). (B) Flow cytometry of IL-17A-producing CD4^+ T cells. Murine in vitro differentiated Th17 cells were stimulated with PMA plus ionomycin and co-treated with verteporfin (C1) (1 or 5 μM) for 30 min. Data shown are representatives of two independent experiments.

[2] = tested on: Th17 differentiation; experiment: In vitro Th17 differentiation of splenic T cells (flow cytometry of IL-17A-producing CD4+ T cells); assay type: cell-based, murine; details: 1 or 5 μM during differentiation, 3 days
Description: as §1

[3] = target: T1, HPK1 (MAP4K1) (Homo sapiens, UniProt Q92918); experiment: In vitro kinase assay, myelin basic protein as substrate (ADP-Glo); assay type: biochemical; details: recombinant kinase domain
T1 construct: Recombinant proteins of kinase domains of various MAP4Ks were used; purchased Promega
T1 sequence (Q92918 17-274 limits assumed): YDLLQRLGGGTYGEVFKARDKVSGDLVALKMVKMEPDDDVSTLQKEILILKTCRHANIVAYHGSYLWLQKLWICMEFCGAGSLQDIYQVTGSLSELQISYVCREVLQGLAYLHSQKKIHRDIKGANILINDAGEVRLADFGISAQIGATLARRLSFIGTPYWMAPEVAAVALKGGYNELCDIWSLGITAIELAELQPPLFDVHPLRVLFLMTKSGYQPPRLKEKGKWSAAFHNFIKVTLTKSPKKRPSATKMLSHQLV

[4] = tested on: murine primary T cells; experiment: Cell death of murine primary T cells (Fixable Viability Stain 780, flow cytometry); assay type: cell-based; details: 1 or 5 μM for 3 d, anti-CD3/CD28 stimulated
Description: Supplementary Figure 4. […] Murine primary T cells were stimulated with anti-CD3/CD28 and co-treated with verteporfin (C1) (1 or 5 μM) for 3 days. Dead T cells were labeled with Fixable Viability Stain 780 (FVS 780; BD Biosciences) and then determined by flow cytometry. Data shown are representatives of four independent experiments.

[5] = tested on: Lck-GLK Tg mice; experiment: Serum cytokines and autoantibodies (ELISA) in Lck-GLK Tg mice; assay type: in vivo; details: 0.4 μg/g body weight i.v. every 3 d
Text: Lck-GLK Tg mice with C57BL/6J backgrounds and GLK-deficient mice with C57BL/6J backgrounds were generated as previously described ([18], [21]). Their respective wild-type littermates with C57BL/6J backgrounds were used as controls. Mice used in this report were either 20-wk-old sex-matched littermates or 8–10-wk-old sex-matched [all female for EAE, all male for collagen-induced arthritis (CIA)] C57BL/6J wild-type mice. All mice used in this study were maintained in temperature-controlled and pathogen-free cages. All animal experiments were performed in the Association for Assessment and Accreditation of Laboratory Animal Care–animal housing facilities at National Health Research Institutes. All mice were used according to the protocols and guidelines approved by the Institutional Animal Care and Use Committee of National Health Research Institutes.
Lck-GLK Tg mice were administered verteporfin (0.4 μg/g body weight) by intravenous injection every 3 d for a period of 30 d (Fig. 4A). […] Moreover, overproduction of autoantibodies (anti-nuclear antibody, anti-dsDNA antibody, and rheumatoid factor) in Lck-GLK Tg mice was also abolished by the verteporfin treatment for 30 d (Fig. 4C). […] To further verify that verteporfin is also effective in IL-17A–mediated animal models, we treated wild-type mice with verteporfin during induction of EAE and CIA.
Figure 4 Verteporfin (C1) suppresses IL-17 production and autoimmune responses in mice. A–C) Effect of C1 administration (0.4 μg/g body weight every 3 d for a period of 30 d) on serum IL-17A and autoantibodies in 20-wk-old Lck-GLK Tg mice. B) ELISA of serum IL-17A, IL-6, TNF-α, IFN-γ, and IL-17F in Lck-GLK Tg mice treated with C1 or PBS for 16 d. C) ELISA of serum autoantibodies in Lck-GLK Tg mice treated with C1 or PBS for 30 d. Means ± SEM are shown; n = 4/group. D) EAE induction in wild-type C57BL/6J mice treated with PBS or C1 (0.4 μg/g body weight every 3 d). Clinical scores are presented on a scale of 1–5. PBS group, n = 10; C1 group, n = 7. E) ELISA of IL-17A in the sera from MOG-immunized mice at day 16. […]

[6] = target: T2, HGK (MAP4K4) (Homo sapiens, UniProt O95819); experiment: In vitro kinase assay, myelin basic protein as substrate (ADP-Glo); assay type: biochemical; details: recombinant kinase domain
T2 construct: Recombinant proteins of kinase domains of various MAP4Ks were used; purchased Promega
T2 sequence (O95819 25-289 limits assumed): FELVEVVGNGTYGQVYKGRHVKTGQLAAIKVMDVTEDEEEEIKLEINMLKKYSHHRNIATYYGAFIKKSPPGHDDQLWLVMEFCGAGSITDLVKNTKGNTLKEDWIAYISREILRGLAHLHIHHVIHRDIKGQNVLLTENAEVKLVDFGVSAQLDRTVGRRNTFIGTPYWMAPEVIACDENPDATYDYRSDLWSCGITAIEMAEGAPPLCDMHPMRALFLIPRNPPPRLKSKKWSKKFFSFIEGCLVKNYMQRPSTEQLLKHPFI

[7] = tested on: CIA mice; experiment: Collagen-induced arthritis (CIA) in wild-type C57BL/6J mice; assay type: in vivo
Description: At 12 wk of age (d 0), male C57BL/6J mice were intradermally injected in the superficial layer of tail dermis with a total of 100 μl of an emulsion containing the chicken type II chicken collagen or Freund’s complete adjuvant emulsification (MD Biosciences, Oakdale, MN, USA) ([23]). The same injection was repeated intraperitoneally on d 21. Then, clinical signs of disease were assigned using the following clinical scores: 1, swollen digits; 2, erythema; 3, swollen paw or ankle; 4, loss of function. Mice were treated with verteporfin at a concentration of 0.4 μg/g body weight (0.556 nmol/g) by intravenous injection every 3 d starting from d 21 up to d 36.
Figure 4 Verteporfin (C1) suppresses IL-17 production and autoimmune responses in mice. A–C) Effect of C1 administration (0.4 μg/g body weight every 3 d for a period of 30 d) on serum IL-17A and autoantibodies in 20-wk-old Lck-GLK Tg mice. B) ELISA of serum IL-17A, IL-6, TNF-α, IFN-γ, and IL-17F in Lck-GLK Tg mice treated with C1 or PBS for 16 d. C) ELISA of serum autoantibodies in Lck-GLK Tg mice treated with C1 or PBS for 30 d. Means ± SEM are shown; n = 4/group. D) EAE induction in wild-type C57BL/6J mice treated with PBS or C1 (0.4 μg/g body weight every 3 d). Clinical scores are presented on a scale of 1–5. PBS group, n = 10; C1 group, n = 7. E) ELISA of IL-17A in the sera from MOG-immunized mice at day 16. F) Induction of CIA in wild-type C57BL/6J mice treated with C1 (0.4 μg/g body weight every 3 d) or PBS. Clinical scores are presented on a scale of 1–16; n = 4/group. G) ELISA of serum IL-17A in collagen-immunized mice at d 28. Data shown are representatives of 3 independent experiments. α-dsDNA, anti-dsDNA antibody; ANA, anti-nuclear antibody; N.S., not significant; RF, rheumatoid factor. Means ± SEM are shown. *P < 0.05, **P < 0.01, ***P < 0.001 (2-tailed Student’s t test).

verteporfin
IL-17A production from in vitro differentiated Th17 cells [1]: inhibited
IL-17A production from in vitro differentiated Th17 cells ([1]; listed as Verteporfin): inhibits
Th17 differentiation [2]: inhibited
Th17 differentiation ([2]; listed as Verteporfin): inhibits
IC50 [3]: 7.91 nM
cell death of murine primary T cells [4]: did not enhance cell death
cell death of murine primary T cells ([4]; listed as Verteporfin): does not induce cell death
serum levels of IL-6, TNF-α, IFN-γ, and IL-17F ([5]; 16 d): not significantly changed
serum IL-17A ([5]; 16 d, vs PBS): significantly decreased
overproduction of autoantibodies (anti-nuclear antibody, anti-dsDNA antibody, rheumatoid factor) ([5]; 30 d): abolished
IC50 [6]: 4.92 nM
serum levels of IL-6, TNF-α, IFN-γ, and IL-4, CIA ([7]; 0.4 μg/g body weight i.v. every 3 d): not significantly decreased
serum IL-17A levels, CIA ([7]; 0.4 μg/g body weight i.v. every 3 d, d 28): significantly suppressed
disease severity (clinical score), CIA ([7]; 0.4 μg/g body weight i.v. every 3 d from d 21): significantly suppressed
